Legend:
[1] = system: late watergrass; test: Test Example 2: herbicidal activity, application during weed generation under submerged conditions (Table 17, symbol A); type: in vivo, late watergrass (Echinochloa oryzicola); conditions: AAH 320 g/ha; application during weed generation, submerged conditions
Method in brief: (§1)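 Wagner pot, alluvial soil, 4 cm flood; mixed sowing of all species; greenhouse 25° C.–30° C. Emulsifiable formulation, water-diluted to predetermined dose, applied to paddy water at 1–2 leaf stage. Effect rated at 3 wk using the earlier test's scoring criteria.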

[2] = system: Japanese bulrush; test: Test Example 2: herbicidal activity, application during weed generation under submerged conditions (Table 17, symbol B); type: in vivo, Japanese bulrush (Schoenoplectus juncoides); conditions: AAH 320 g/ha; application during weed generation, submerged conditions
Method in brief: as §1

[3] = system: oval-leafed pondweed; test: Test Example 2: herbicidal activity, application during weed generation under submerged conditions (Table 17, symbol C); type: in vivo, oval-leafed pondweed (Monochoria vaginalis); conditions: AAH 320 g/ha; application during weed generation, submerged conditions
Method in brief: as §1

[4] = system: barnyard grass; test: Test Example 3: herbicidal effect by foliage application, Wagner pot (Table 18, symbol H); type: in vivo, barnyard grass (Echinochloa crus-galli)
Method in brief: (§2)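 Plants were sown in alluvial soil held under 0.1–0.5 cm standing water and grown 14 days in a greenhouse at 25–30 °C. An emulsifiable formulation, water-diluted to the set dose, was then sprayed onto the foliage, and effects were scored three weeks later using previously defined criteria.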

[5] = system: Chinese sprangletop; test: Test Example 3: herbicidal effect by foliage application, Wagner pot (Table 18, symbol D); type: in vivo, chinese sprangletop (Leptochloa chinensis)
Method in brief: as §2

[6] = system: rice flat sedge; test: Test Example 3: herbicidal effect by foliage application, Wagner pot (Table 18, symbol E); type: in vivo, rice flat sedge (Cyperus iria)
Method in brief: as §2

[7] = system: southern crabgrass; test: Test Example 4: herbicidal effect by soil treatment (Table 19, symbol F); type: in vivo, southern crabgrass (Digitaria ciliaris); conditions: amount of applied herbicide 320 g/ha
Method in brief: (§3)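 Pre-emergence style soil spray: seeds under ~1.5 cm sterilized diluvial soil received a uniform coat of emulsion diluted to the predetermined herbicide amount. Greenhouse 25–30° C; readout at week three on previously defined criteria.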

[8] = system: green foxtail; test: Test Example 4: herbicidal effect by soil treatment (Table 19, symbol G); type: in vivo, green foxtail (Setaria viridis); conditions: amount of applied herbicide 320 g/ha
Method in brief: as §3

[9] = system: barnyard grass; test: Test Example 4: herbicidal effect by soil treatment (Table 19, symbol H); type: in vivo, barnyard grass (Echinochloa crus-galli); conditions: amount of applied herbicide 320 g/ha
Method in brief: as §3

[10] = system: wild oat; test: Test Example 4: herbicidal effect by soil treatment (Table 19, symbol I); type: in vivo, wild oat (Avena fatua); conditions: amount of applied herbicide 320 g/ha
Method in brief: as §3

[11] = system: blackgrass; test: Test Example 4: herbicidal effect by soil treatment (Table 19, symbol J); type: in vivo, blackgrass (Alopecurus myosuroides); conditions: amount of applied herbicide 320 g/ha
Method in brief: as §3

[12] = system: Italian ryegrass; test: Test Example 4: herbicidal effect by soil treatment (Table 19, symbol K); type: in vivo, Italian ryegrass (Lolium multiflorum); conditions: amount of applied herbicide 320 g/ha
Method in brief: as §3

[13] = system: windgrass; test: Test Example 4: herbicidal effect by soil treatment (Table 19, symbol L); type: in vivo, windgrass (Apera spica-venti); conditions: amount of applied herbicide 320 g/ha
Method in brief: as §3

[14] = system: velvetleaf; test: Test Example 4: herbicidal effect by soil treatment (Table 19, symbol M); type: in vivo, velvetleaf (Abutilon theophrasti); conditions: amount of applied herbicide 320 g/ha
Method in brief: as §3

[15] = system: redroot pigweed; test: Test Example 4: herbicidal effect by soil treatment (Table 19, symbol N); type: in vivo, redroot pigweed (Amaranthus retroflexus); conditions: amount of applied herbicide 320 g/ha
Method in brief: as §3

[16] = system: lambsquarters; test: Test Example 4: herbicidal effect by soil treatment (Table 19, symbol O); type: in vivo, lambsquarters (Chenopodium album); conditions: amount of applied herbicide 320 g/ha
Method in brief: as §3

[17] = system: persian speedwell; test: Test Example 4: herbicidal effect by soil treatment (Table 19, symbol R); type: in vivo, Persian speedwell (Veronica persica); conditions: amount of applied herbicide 320 g/ha
Method in brief: as §3

[18] = system: southern crabgrass; test: Test Example 5: herbicidal effect by foliage application, plastic box (Table 20, symbol F); type: in vivo, southern crabgrass (Digitaria ciliaris); conditions: 320 g/ha, evaluated three weeks after application
Method in brief: (§4)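 Plants were sown into sterilized diluvial soil under about 1.5 cm cover and kept in a greenhouse at 25° C. to 30° C. Fourteen days on, foliage received an even spray of the diluted emulsion. Herbicidal or crop effect was judged three weeks afterwards.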

[19] = system: green foxtail; test: Test Example 5: herbicidal effect by foliage application, plastic box (Table 20, symbol G); type: in vivo, green foxtail (Setaria viridis); conditions: 320 g/ha, evaluated three weeks after application
Method in brief: as §4

[20] = system: barnyard grass; test: Test Example 5: herbicidal effect by foliage application, plastic box (Table 20, symbol H); type: in vivo, barnyard grass (Echinochloa crus-galli); conditions: 320 g/ha, evaluated three weeks after application
Method in brief: as §4

[21] = system: wild oat; test: Test Example 5: herbicidal effect by foliage application, plastic box (Table 20, symbol I); type: in vivo, wild oat (Avena fatua); conditions: 320 g/ha, evaluated three weeks after application
Method in brief: as §4

[22] = system: blackgrass; test: Test Example 5: herbicidal effect by foliage application, plastic box (Table 20, symbol J); type: in vivo, blackgrass (Alopecurus myosuroides); conditions: 320 g/ha, evaluated three weeks after application
Method in brief: as §4

[23] = system: Italian ryegrass; test: Test Example 5: herbicidal effect by foliage application, plastic box (Table 20, symbol K); type: in vivo, Italian ryegrass (Lolium multiflorum); conditions: 320 g/ha, evaluated three weeks after application
Method in brief: as §4

[24] = system: windgrass; test: Test Example 5: herbicidal effect by foliage application, plastic box (Table 20, symbol L); type: in vivo, windgrass (Apera spica-venti); conditions: 320 g/ha, evaluated three weeks after application
Method in brief: as §4

[25] = system: velvetleaf; test: Test Example 5: herbicidal effect by foliage application, plastic box (Table 20, symbol M); type: in vivo, velvetleaf (Abutilon theophrasti); conditions: 320 g/ha, evaluated three weeks after application
Method in brief: as §4

[26] = system: redroot pigweed; test: Test Example 5: herbicidal effect by foliage application, plastic box (Table 20, symbol N); type: in vivo, redroot pigweed (Amaranthus retroflexus); conditions: 320 g/ha, evaluated three weeks after application
Method in brief: as §4

[27] = system: lambsquarters; test: Test Example 5: herbicidal effect by foliage application, plastic box (Table 20, symbol O); type: in vivo, lambsquarters (Chenopodium album); conditions: 320 g/ha, evaluated three weeks after application
Method in brief: as §4

[28] = system: chickweed; test: Test Example 5: herbicidal effect by foliage application, plastic box (Table 20, symbol P); type: in vivo, common chickweed (Stellaria media); conditions: 320 g/ha, evaluated three weeks after application
Method in brief: as §4

[29] = system: persian speedwell; test: Test Example 5: herbicidal effect by foliage application, plastic box (Table 20, symbol R); type: in vivo, Persian speedwell (Veronica persica); conditions: 320 g/ha, evaluated three weeks after application
Method in brief: as §4

[30] = amount of applied herbicide 320 g/ha
[31] = foliage application after 14-day growth

## CCCSc1ccc(-c2sc3ccc(F)cc3c2-c2c(O)c(C)nn(C)c2=O)cc1 [2-248]
[1]
  herbicidal effect rating, A: late watergrass: 4 (Herbicidal rate of 70% or more and less than 90%)
[2]
  herbicidal effect rating, B: Japanese bulrush: 0 (Herbicidal rate of 5% or less (almost no effect))
[3]
  herbicidal effect rating, C: oval-leafed pondweed: 0 (Herbicidal rate of 5% or less (almost no effect))
[4]; [30]
  herbicidal effect on H: barnyard grass: 5 (Herbicidal rate of 90% or more (almost completely withered))
[5]; [30]
  herbicidal effect on D: Chinese sprangletop: 5 (Herbicidal rate of 90% or more (almost completely withered))
[6]; [30]
  herbicidal effect on E: rice flat sedge: 4 (Herbicidal rate of 70% or more and less than 90%)
[7]
  herbicidal effect on F: southern crabgrass: 1 (Herbicidal rate of 5% or more and less than 20%)
[8]
  herbicidal effect on G: green foxtail: 4 (Herbicidal rate of 70% or more and less than 90%)
[9]
  herbicidal effect on H: barnyard grass: 2 (Herbicidal rate of 20% or more and less than 40%)
[10]
  herbicidal effect on I: wild oat: 0 (Herbicidal rate of 5% or less (almost no effect))
[11]
  herbicidal effect on J: blackgrass: 0 (Herbicidal rate of 5% or less (almost no effect))
[12]
  herbicidal effect on K: Italian ryegrass: 0 (Herbicidal rate of 5% or less (almost no effect))
[13]
  herbicidal effect on L: windgrass: 0 (Herbicidal rate of 5% or less (almost no effect))
[14]
  herbicidal effect on M: velvetleaf: 3 (Herbicidal rate of 40% or more and less than 70%)
[15]
  herbicidal effect on N: redroot pigweed: 5 (Herbicidal rate of 90% or more (almost completely withered))
[16]
  herbicidal effect on O: lambsquarters: 4 (Herbicidal rate of 70% or more and less than 90%)
[17]
  herbicidal effect on R: persian speedwell: 4 (Herbicidal rate of 70% or more and less than 90%)
[18]; foliage application
  herbicidal effect on F: southern crabgrass (criteria 0-5): 5 (Herbicidal rate of 90% or more (almost completely withered))
[19]; foliage application
  herbicidal effect on G: green foxtail (criteria 0-5): 5 (Herbicidal rate of 90% or more (almost completely withered))
[20]; foliage application
  herbicidal effect on H: barnyard grass (criteria 0-5): 5 (Herbicidal rate of 90% or more (almost completely withered))
[21]; foliage application
  herbicidal effect on I: wild oat (criteria 0-5): 5 (Herbicidal rate of 90% or more (almost completely withered))
[22]; foliage application
  herbicidal effect on J: blackgrass (criteria 0-5): 4 (Herbicidal rate of 70% or more and less than 90%)
[23]; foliage application
  herbicidal effect on K: Italian ryegrass (criteria 0-5): 4 (Herbicidal rate of 70% or more and less than 90%)
[24]; foliage application
  herbicidal effect on L: windgrass (criteria 0-5): 5 (Herbicidal rate of 90% or more (almost completely withered))
[25]; foliage application
  herbicidal effect on M: velvetleaf (criteria 0-5): 5 (Herbicidal rate of 90% or more (almost completely withered))
[26]; foliage application
  herbicidal effect on N: redroot pigweed (criteria 0-5): 5 (Herbicidal rate of 90% or more (almost completely withered))
[27]; foliage application
  herbicidal effect on O: lambsquarters (criteria 0-5): 5 (Herbicidal rate of 90% or more (almost completely withered))
[28]; foliage application
  herbicidal effect on P: chickweed (criteria 0-5): 5 (Herbicidal rate of 90% or more (almost completely withered))
[29]; foliage application
  herbicidal effect on R: persian speedwell (criteria 0-5): 5 (Herbicidal rate of 90% or more (almost completely withered))

## Cc1ccc(-c2sc3c(Cl)cccc3c2-c2c(O)c(C)nn(C)c2=O)cc1 [4-019]
[1]
  herbicidal effect rating, A: late watergrass: 4 (Herbicidal rate of 70% or more and less than 90%)
[2]
  herbicidal effect rating, B: Japanese bulrush: 0 (Herbicidal rate of 5% or less (almost no effect))
[3]
  herbicidal effect rating, C: oval-leafed pondweed: 0 (Herbicidal rate of 5% or less (almost no effect))
[4]; 320 g/ha
  herbicidal effect on barnyard grass (H): 3 (Herbicidal rate of 40% or more and less than 70%)
[5]; 320 g/ha
  herbicidal effect on Chinese sprangletop (D): 4 (Herbicidal rate of 70% or more and less than 90%)
[6]; 320 g/ha
  herbicidal effect on rice flat sedge (E): 5 (Herbicidal rate of 90% or more (almost completely withered))
[18]; [31]
  herbicidal effect on F: southern crabgrass (evaluation grade 0-5): 0 (Herbicidal rate of 5% or less (almost no effect))
[19]; [31]
  herbicidal effect on G: green foxtail (evaluation grade 0-5): 1 (Herbicidal rate of 5% or more and less than 20%)
[20]; [31]
  herbicidal effect on H: barnyard grass (evaluation grade 0-5): 0 (Herbicidal rate of 5% or less (almost no effect))
[21]; [31]
  herbicidal effect on I: wild oat (evaluation grade 0-5): 3 (Herbicidal rate of 40% or more and less than 70%)
[22]; [31]
  herbicidal effect on J: blackgrass (evaluation grade 0-5): 0 (Herbicidal rate of 5% or less (almost no effect))
[23]; [31]
  herbicidal effect on K: Italian ryegrass (evaluation grade 0-5): 3 (Herbicidal rate of 40% or more and less than 70%)
[24]; [31]
  herbicidal effect on L: windgrass (evaluation grade 0-5): 1 (Herbicidal rate of 5% or more and less than 20%)
[25]; [31]
  herbicidal effect on M: velvetleaf (evaluation grade 0-5): 5 (Herbicidal rate of 90% or more (almost completely withered))
[26]; [31]
  herbicidal effect on N: redroot pigweed (evaluation grade 0-5): 5 (Herbicidal rate of 90% or more (almost completely withered))
[27]; [31]
  herbicidal effect on O: lambsquarters (evaluation grade 0-5): 1 (Herbicidal rate of 5% or more and less than 20%)
[28]; [31]
  herbicidal effect on P: chickweed (evaluation grade 0-5): 5 (Herbicidal rate of 90% or more (almost completely withered))
[29]; [31]
  herbicidal effect on R: persian speedwell (evaluation grade 0-5): 4 (Herbicidal rate of 70% or more and less than 90%)
